Counter-ions that a name gives are not always drawn.
Columns and labels:
[1] = hygroscopicity at 95% relative humidity/25° C.
[2] = compaction susceptibility
[3] = cited from earlier work

Q: For `CN(C)C(=N)N=C(N)N` [metformin (2:1) fumarate, Metformin (2:1) Fumarate], which “hygroscopicity, moisture uptake” value ([1]; at 6 hours) is on record?
A: less than 7%

Q: And the compaction susceptibility [2]?
A: low

Q: What does the source list for `CN(C)C(=N)NC(=N)N` [metformin (2:1) succinate, Metformin (2:1) Succinate]?
A: hygroscopicity, moisture uptake ([1]; at 30 minutes): less than 1%; compaction susceptibility [2]: low

Q: What does the source list for `CN(C)C(=N)N=C(N)N` [metformin]?
A: area under the plasma concentration-time profile, jejunum compared with ileum ([3]; drug perfused into jejunum versus ileum): 2.5 fold; drug in plasma ([3]; drug perfused into the colon): not detectable
